Measured values published in PubChem BioAssay (NCI).
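96-well plates; 48 h exposure; 5 concentrations. Endpoints by linear interpolation between flanking doses. Not reached: highest tested concentration assigned. At the TGI there is no net growth.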

Tests used:
Assay in all cases: growth of human tumour cells (NCI), 48 h
HOP-62 NSCLC = system: HOP-62 NSCLC
RPMI-8226 leukemia = system: RPMI-8226 leukemia
OVCAR-3 ovarian = system: OVCAR-3 ovarian
SF-539 CNS = system: SF-539 CNS
M14 melanoma = system: M14 melanoma
DMS 114 small cell lung = system: DMS 114 small cell lung
HCT-15 colon = system: HCT-15 colon
DLD-1 colon = system: DLD-1 colon
SK-MEL-28 melanoma = system: SK-MEL-28 melanoma
TK-10 renal = system: TK-10 renal
MOLT-4 leukemia = system: MOLT-4 leukemia
RXF 393 renal = system: RXF 393 renal
CCRF-CEM leukemia = system: CCRF-CEM leukemia
A498 renal = system: A498 renal
SF-268 CNS = system: SF-268 CNS
CAKI-1 renal = system: CAKI-1 renal
SF-295 CNS = system: SF-295 CNS
EKVX NSCLC = system: EKVX NSCLC
SW-620 colon = system: SW-620 colon
MALME-3M melanoma = system: MALME-3M melanoma
DMS 273 small cell lung = system: DMS 273 small cell lung
NCI-H522 lung = system: NCI-H522 lung
XF 498 CNS = system: XF 498 CNS
NCI-H460 lung = system: NCI-H460 lung
LOX IMVI melanoma = system: LOX IMVI melanoma
SK-MEL-2 melanoma = system: SK-MEL-2 melanoma
UACC-62 melanoma = system: UACC-62 melanoma
K-562 leukemia = system: K-562 leukemia
NCI-H23 lung = system: NCI-H23 lung
SNB-78 CNS = system: SNB-78 CNS
IGROV1 ovarian = system: IGROV1 ovarian
COLO 205 colon = system: COLO 205 colon
NCI-H226 lung = system: NCI-H226 lung
OVCAR-8 ovarian = system: OVCAR-8 ovarian
HT29 colon = system: HT29 colon
HCC-2998 colon = system: HCC-2998 colon
M19-MEL melanoma = system: M19-MEL melanoma
HL-60(TB) leukemia = system: HL-60(TB) leukemia
OVCAR-4 ovarian = system: OVCAR-4 ovarian
SN12C renal = system: SN12C renal
HOP-18 NSCLC = system: HOP-18 NSCLC
ACHN renal = system: ACHN renal
UACC-257 melanoma = system: UACC-257 melanoma
U251 CNS = system: U251 CNS
HOP-92 NSCLC = system: HOP-92 NSCLC
SK-OV-3 ovarian = system: SK-OV-3 ovarian
SNB-75 CNS = system: SNB-75 CNS
SK-MEL-5 melanoma = system: SK-MEL-5 melanoma
RXF-631 renal = system: RXF-631 renal
SNB-19 CNS = system: SNB-19 CNS
A549 NSCLC = system: A549 NSCLC
786-0 renal = system: 786-0 renal
KM20L2 colon = system: KM20L2 colon
LXFL 529 NSCLC = system: LXFL 529 NSCLC
KM12 colon = system: KM12 colon
UO-31 renal = system: UO-31 renal
OVCAR-5 ovarian = system: OVCAR-5 ovarian
SR leukemia = system: SR leukemia
HCT-116 colon = system: HCT-116 colon

Question: For `CCOc1ccc(N=Cc2c3ccccc3nc3ccccc23)cc1`, which TGI (HOP-62 NSCLC) is on record?
Answer: > 100 µM

Question: And the TGI (RPMI-8226 leukemia)?
Answer: > 100 µM

Question: What about the TGI (OVCAR-3 ovarian) of the same compound?
Answer: > 100 µM

Question: What about the TGI (SF-539 CNS) of the same compound?
Answer: > 100 µM

Question: And the TGI (M14 melanoma)?
Answer: > 100 µM

Question: What about the TGI (DMS 114 small cell lung) of the same compound?
Answer: > 100 µM

Question: What about the TGI (HCT-15 colon) of the same compound?
Answer: > 100 µM

Question: And the TGI (DLD-1 colon)?
Answer: > 100 µM

Question: What about the TGI (SK-MEL-28 melanoma) of the same compound?
Answer: > 100 µM

Question: And the TGI (TK-10 renal)?
Answer: > 100 µM

Question: And the TGI (MOLT-4 leukemia)?
Answer: > 100 µM

Question: What about the TGI (RXF 393 renal) of the same compound?
Answer: > 100 µM

Question: And the TGI (CCRF-CEM leukemia)?
Answer: 24 µM

Question: And the TGI (A498 renal)?
Answer: > 100 µM

Question: What about the TGI (SF-268 CNS) of the same compound?
Answer: > 100 µM

Question: And the TGI (CAKI-1 renal)?
Answer: > 100 µM

Question: And the TGI (SF-295 CNS)?
Answer: > 100 µM

Question: What about the TGI (EKVX NSCLC) of the same compound?
Answer: > 100 µM

Question: And the TGI (SW-620 colon)?
Answer: > 100 µM

Question: And the TGI (MALME-3M melanoma)?
Answer: > 100 µM

Question: And the TGI (DMS 273 small cell lung)?
Answer: > 100 µM

Question: What about the TGI (NCI-H522 lung) of the same compound?
Answer: > 100 µM

Question: And the TGI (XF 498 CNS)?
Answer: > 100 µM

Question: What about the TGI (NCI-H460 lung) of the same compound?
Answer: > 100 µM

Question: What about the TGI (LOX IMVI melanoma) of the same compound?
Answer: > 100 µM

Question: And the TGI (SK-MEL-2 melanoma)?
Answer: > 100 µM

Question: And the TGI (UACC-62 melanoma)?
Answer: > 100 µM

Question: And the TGI (K-562 leukemia)?
Answer: > 100 µM

Question: And the TGI (NCI-H23 lung)?
Answer: > 100 µM

Question: And the TGI (SNB-78 CNS)?
Answer: > 100 µM

Question: And the TGI (IGROV1 ovarian)?
Answer: > 100 µM

Question: What about the TGI (COLO 205 colon) of the same compound?
Answer: > 100 µM

Question: What about the TGI (NCI-H226 lung) of the same compound?
Answer: > 100 µM

Question: And the TGI (OVCAR-8 ovarian)?
Answer: > 100 µM

Question: What about the TGI (HT29 colon) of the same compound?
Answer: > 100 µM

Question: And the TGI (HCC-2998 colon)?
Answer: > 100 µM

Question: And the TGI (M19-MEL melanoma)?
Answer: > 100 µM

Question: What about the TGI (HL-60(TB) leukemia) of the same compound?
Answer: 77.2 µM

Question: And the TGI (OVCAR-4 ovarian)?
Answer: > 100 µM

Question: And the TGI (SN12C renal)?
Answer: > 100 µM

Question: What about the TGI (HOP-18 NSCLC) of the same compound?
Answer: > 100 µM

Question: And the TGI (ACHN renal)?
Answer: > 100 µM

Question: And the TGI (UACC-257 melanoma)?
Answer: > 100 µM

Question: What about the TGI (U251 CNS) of the same compound?
Answer: > 100 µM

Question: What about the TGI (HOP-92 NSCLC) of the same compound?
Answer: > 100 µM

Question: What about the TGI (SK-OV-3 ovarian) of the same compound?
Answer: > 100 µM

Question: What about the TGI (SNB-75 CNS) of the same compound?
Answer: > 100 µM

Question: What about the TGI (SK-MEL-5 melanoma) of the same compound?
Answer: > 100 µM

Question: And the TGI (RXF-631 renal)?
Answer: > 100 µM

Question: What about the TGI (SNB-19 CNS) of the same compound?
Answer: > 100 µM

Question: And the TGI (A549 NSCLC)?
Answer: > 100 µM

Question: What about the TGI (786-0 renal) of the same compound?
Answer: > 100 µM

Question: What about the TGI (KM20L2 colon) of the same compound?
Answer: > 100 µM

Question: What about the TGI (LXFL 529 NSCLC) of the same compound?
Answer: > 100 µM

Question: And the TGI (KM12 colon)?
Answer: 84.7 µM

Question: And the TGI (UO-31 renal)?
Answer: > 100 µM

Question: Which TGI (HOP-62 NSCLC) does the source give for `CCCCCCCCCCCCCCCCCCC1=C(O)C(=O)C=C(OC)C1=O` here?
Answer: > 100 µM

Question: And the TGI (OVCAR-3 ovarian)?
Answer: > 100 µM

Question: And the TGI (SF-539 CNS)?
Answer: > 100 µM

Question: What about the TGI (M14 melanoma) of the same compound?
Answer: > 100 µM

Question: What about the TGI (DMS 114 small cell lung) of the same compound?
Answer: 61.8 µM

Question: And the TGI (HCT-15 colon)?
Answer: 97.5 µM

Question: What about the TGI (DLD-1 colon) of the same compound?
Answer: > 100 µM

Question: What about the TGI (SK-MEL-28 melanoma) of the same compound?
Answer: > 100 µM

Question: What about the TGI (TK-10 renal) of the same compound?
Answer: > 100 µM

Question: What about the TGI (MOLT-4 leukemia) of the same compound?
Answer: > 100 µM

Question: What about the TGI (RXF 393 renal) of the same compound?
Answer: > 100 µM

Question: What about the TGI (A498 renal) of the same compound?
Answer: > 100 µM

Question: What about the TGI (SF-268 CNS) of the same compound?
Answer: > 100 µM

Question: What about the TGI (CAKI-1 renal) of the same compound?
Answer: > 100 µM

Question: And the TGI (SF-295 CNS)?
Answer: > 100 µM

Question: What about the TGI (EKVX NSCLC) of the same compound?
Answer: > 100 µM

Question: What about the TGI (SW-620 colon) of the same compound?
Answer: > 100 µM

Question: And the TGI (MALME-3M melanoma)?
Answer: > 100 µM

Question: What about the TGI (DMS 273 small cell lung) of the same compound?
Answer: > 100 µM

Question: What about the TGI (NCI-H522 lung) of the same compound?
Answer: 82.2 µM

Question: What about the TGI (XF 498 CNS) of the same compound?
Answer: > 100 µM

Question: What about the TGI (NCI-H460 lung) of the same compound?
Answer: > 100 µM

Question: What about the TGI (SK-MEL-2 melanoma) of the same compound?
Answer: 76.5 µM

Question: And the TGI (UACC-62 melanoma)?
Answer: > 100 µM

Question: And the TGI (NCI-H23 lung)?
Answer: > 100 µM

Question: And the TGI (SNB-78 CNS)?
Answer: > 100 µM

Question: And the TGI (IGROV1 ovarian)?
Answer: > 100 µM

Question: And the TGI (OVCAR-5 ovarian)?
Answer: > 100 µM

Question: What about the TGI (COLO 205 colon) of the same compound?
Answer: > 100 µM

Question: What about the TGI (NCI-H226 lung) of the same compound?
Answer: > 100 µM

Question: And the TGI (SR leukemia)?
Answer: > 100 µM

Question: What about the TGI (OVCAR-8 ovarian) of the same compound?
Answer: > 100 µM

Question: What about the TGI (HT29 colon) of the same compound?
Answer: > 100 µM

Question: What about the TGI (HCC-2998 colon) of the same compound?
Answer: > 100 µM

Question: What about the TGI (M19-MEL melanoma) of the same compound?
Answer: > 100 µM

Question: What about the TGI (HL-60(TB) leukemia) of the same compound?
Answer: 80.8 µM

Question: What about the TGI (HCT-116 colon) of the same compound?
Answer: > 100 µM

Question: What about the TGI (OVCAR-4 ovarian) of the same compound?
Answer: > 100 µM

Question: What about the TGI (SN12C renal) of the same compound?
Answer: > 100 µM

Question: And the TGI (HOP-18 NSCLC)?
Answer: > 100 µM

Question: And the TGI (ACHN renal)?
Answer: > 100 µM

Question: And the TGI (UACC-257 melanoma)?
Answer: > 100 µM

Question: And the TGI (U251 CNS)?
Answer: > 100 µM

Question: What about the TGI (HOP-92 NSCLC) of the same compound?
Answer: > 100 µM

Question: And the TGI (SK-OV-3 ovarian)?
Answer: > 100 µM

Question: What about the TGI (SNB-75 CNS) of the same compound?
Answer: > 100 µM

Question: What about the TGI (SK-MEL-5 melanoma) of the same compound?
Answer: > 100 µM

Question: What about the TGI (SNB-19 CNS) of the same compound?
Answer: > 100 µM

Question: And the TGI (A549 NSCLC)?
Answer: > 100 µM

Question: And the TGI (786-0 renal)?
Answer: > 100 µM

Question: What about the TGI (KM20L2 colon) of the same compound?
Answer: > 100 µM

Question: What about the TGI (LXFL 529 NSCLC) of the same compound?
Answer: > 100 µM

Question: What about the TGI (KM12 colon) of the same compound?
Answer: > 100 µM

Question: And the TGI (UO-31 renal)?
Answer: > 100 µM
